Results on 3 compounds are retold here after patent US9604947B2, “Substituted 5-imino-1,2,4-thiadiazoles that can be used to treat neurodegenerative diseases” (CONSEJO SUPERIOR DE INVESTIGACIONES CIENTIFICAS (CSIC), priority 2009, dated 2017).

Structures can show the parent of a compound that is named as a salt. Where two headings read alike, the source gives them in different places.

Usually IC50 stands for the point on the concentration scale where inhibition reaches its midpoint. A word on the Papp: it is a coefficient for how fast a substance crosses the barrier. Read a low Papp as poor permeation. A word on the inhibition: it is the share of the control response that was lost under treatment.

One series concerns the target T1, PDE7A1 (Homo sapiens, UniProt Q13946).
T1 construct: purchased Calbiochem 524751
Put plainly: Determination of PDE7 inhibition (SPA, [3H]cAMP). The settings on record: for IC50: read-out: IC50 (PDE7A). Type of series: biochemical. The method, then: PDE-7 inhibition was performed with a commercial kit for the determination of phosphodiesterase activity (GE Healthcare Life Sciences, cat#TRKQ7090).
The compounds to be evaluated were incubated (in concentrations between 0.1 nM and 100 μM) in presence of 0.02 U/well of PDE7A1 (Calbiochem cat#524751) and 0.05 μCi of [^3H] cAMP, for 20 min at 30° C. in the assay buffer of kit (total volume=100 μl).
After this time, 50 μl of a suspension of 20 mg/ml microspheres of SPA of Ytrium silicate were added and was maintained under stirring at room temperature for 60 min. Finally, the plate was settled for 20 min and radioactivity was detected in a Microbeta Trilux reader.
In every assay there were included two points without PDE7A1 (blank) and two points with PDE7A1 without inhibitors (control).
Data Analysis: All the compounds were evaluated firstly at the concentration of 10 μM and the percentage of PDE7A1 inhibition was calculated, according to the following formula (cpm=counts per minute): % Inhibition=((cpm control−cpm sample)×100)/(cpm control−cpm blank assay).
For those compounds with % inhibition values above 45% it was calculated its inhibitory potency (IC50) building the dose-response curve.
The data were adjusted with the software Prism v 2.1 (GraphPad Software) using the non lineal fitting.

Another series is described as follows: in vitro. Conditions: for Papp at 4 h: pH 7.4. As to the method:
Ten commercial reference drugs, phosphate buffer saline solution at pH 7.4 (PBS), DMSO and dodecane were purchased from Sigma, Acros organics, Aldrich and Fluka. […] Filter PDVF membrane units (diameter 30 mm, pore size 0.45 μm) from Symta were used to filtered the samples. A 96-well plate UV reader (Thermoscientific, Multiskan spectrum) was used for the UV measurements. […] These solutions were filtered. The acceptor 96-well microplate was filled with 180 μL of PBS:DMSO (95:5). The donor 96-well plate was coated with 4 μL of porcine brain lipid in dodecane (20 mg mL^−1) and after 5 minutes, 180 μL of each compound solution was added. 1-2 mg of every compound to be determined their ability to pass the BBB were dissolved in 250 μL of DMSO and 4750 μL of PBS pH 7.4 buffer, filtered and then added to the donor 96-well plate. Then the donor plate was carefully put on the acceptor plate to form a “sandwich”, which was left undisturbed for 4 h at 25° C.
During this time the compounds diffused from the donor plate through the brain lipid membrane into the acceptor plate. After incubation, the donor plate was removed. The concentration of compounds and commercial drugs in the acceptor and the donor wells was determined by UV plate reader. Every sample was analyzed from three to five wavelengths, in 3 wells and in at least three independent runs. […] 11 quality control compounds (previously mentioned) of known BBB permeability were included in each experiment to validate the analysis set.

T1 sequence (Q13946 whole entry): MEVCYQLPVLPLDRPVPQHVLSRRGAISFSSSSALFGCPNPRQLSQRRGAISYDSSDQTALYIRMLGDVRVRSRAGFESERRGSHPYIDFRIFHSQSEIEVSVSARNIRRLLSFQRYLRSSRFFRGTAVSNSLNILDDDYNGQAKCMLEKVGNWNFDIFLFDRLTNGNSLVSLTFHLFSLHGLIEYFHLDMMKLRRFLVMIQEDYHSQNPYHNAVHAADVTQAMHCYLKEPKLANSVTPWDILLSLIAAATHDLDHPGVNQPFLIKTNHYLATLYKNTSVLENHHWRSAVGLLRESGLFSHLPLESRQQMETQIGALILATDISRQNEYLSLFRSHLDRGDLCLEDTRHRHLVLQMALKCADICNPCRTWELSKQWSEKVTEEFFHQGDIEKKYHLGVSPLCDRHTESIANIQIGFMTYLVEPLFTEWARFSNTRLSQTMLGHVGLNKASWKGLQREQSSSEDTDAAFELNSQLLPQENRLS

As for `OCCN=c1nc(-c2ccccc2)n(-c2ccccc2)s1` [VP-2.3, 5-(2-Hydroxyethylimino)-2,3-diphenyl-2,5-dihidro-1,2,4-thiadiazole hydrochloride], the half-inhibitory concentration (IC50) on PDE7A1 (1,2,4-thiadiazoles-5-imino substituted as hydrochlorides) worked out at 1970 nM. In “in vitro” (PAMPA), the “Prediction (predictive penetration in the CNS)” value (“Prediction” below) is recorded as “CNS+” and the Papp at 4 h came out at 15 ± 2 ×10⁻⁶ cm/s.
For the compound `Br.OCCN=c1nc(-c2cccc3ccccc23)n(-c2ccccc2)s1` [VP-2.33, 5-(2-Hydroxyethylimino)-3-(1-naphthyl)-2-phenyl-2,5-dihydro-1,2,4-thiadiazole hydrobromide], on PDE7A1 (1,2,4-thiadiazoles-5-imino substituted as hydrobromides), the IC50 came to 1240 nM. In addition, the apparent permeability coefficient (Papp) at 4 h in “in vitro” (PAMPA) is 10.2 ± 0.6 ×10⁻⁶ cm/s. Moreover, in the series “in vitro” (PAMPA-BBB), the “Prediction” value is given as “CNS+”.
Turning to `Br.Br.Cc1nc(=NCc2cccnc2)sn1-c1ccccc1` [VP-2.63, 3-Methyl-2-phenyl-5-(3-pyridylmethylimino)-2,5-dihydro-1,2,4-thiadiazole dihydrobromide], the inhibition at 10 µM at PDE7A1 (read-out: % inhibition of PDE7A at 10 μM, hydrobromides, at 10 μM) came out at 54%. Further, in “in vitro” (PAMPA), the “Prediction” value is given as “CNS+” and the apparent permeability (Papp) at 4 h was 5.3 ± 0.9 ×10⁻⁶ cm/s.
